Results as given in patent US20240041042A1, “1-(PYRIDYL)-5-AZINYLPYRAZOLE DERIVATIVES, AND THEIR USE FOR CONTROL OF UNDESIRED PLANT GROWTH” (Bayer Aktiengesellschaft, priority 2020, published 2024).
Where two headings read alike, the source gives them in different places.

Experiments:
Type in all cases: in vivo
[1] = tested on: Pharbitis purpurea (PHBPU); experiment: Post-emergence herbicidal action against PHBPU
Summary of the method: (§1)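 Post-emergence greenhouse spray, one-leaf stage, 600 l/ha water plus 0.5% additive; WP or EC formulations; application rates 320 g/ha or lower. Visual % damage vs untreated controls at ~3 weeks.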

[2] = tested on: Abutilon theophrasti (ABUTH); experiment: Pre-emergence herbicidal action against ABUTH; conditions: Dosage column 320 g/ha (title prints 3200 g/ha); scored visually after about 3 weeks; 100% = plants have died
From the text: Seeds of monocotyledonous and dicotyledonous weed plants and crop plants are placed in plastic or organic planting pots and covered with soil. The compounds of the invention, formulated in the form of wettable powders (WP) or as emulsion concentrates (EC), are then applied to the surface of the covering soil as aqueous suspension or emulsion with addition of 0.5% additive at a water application rate equivalent to 600 l/ha. After the treatment, the pots are placed in a greenhouse and kept under good growth conditions for the trial plants. After about 3 weeks, the effect of the preparations is scored visually in comparison with untreated controls as percentages. For example, 100% activity=the plants have died, 0% activity=like control plants.
Tables A1 to A13 below show the effects of selected compounds of the general formula (I) on various harmful plants and at an application rate corresponding to 320 g/ha or lower, which were obtained by the experimental procedure mentioned above. The appendices “a”, “b” and “c” give differentiation by dosage used with otherwise the same harmful plants tested.

[3] = tested on: Amaranthus retroflexus (AMARE); experiment: Pre-emergence herbicidal action against AMARE; conditions: visual scoring after about 3 weeks vs untreated controls
Summary of the method: (§2)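 Pre-emergence soil-surface spray of compound, formulated as wettable powder or emulsion concentrate, in aqueous suspension or emulsion with 0.5% additive (600 l/ha; rate 320 g/ha or less). Activity rated visually after roughly 3 weeks in the greenhouse as a percentage of untreated controls, 0% meaning no difference.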

[4] = tested on: Alopecurus myosuroides (ALOMY); experiment: Pre-emergence herbicidal action against ALOMY; conditions: scored visually after about 3 weeks, 100% = plants have died
Summary of the method: as §2

Lolium rigidum (LOLRI) [5] = experiment: Post-emergence herbicidal action against LOLRI
Summary of the method: as §1

[6] = tested on: Echinochloa crus-galli (ECHCG); experiment: Pre-emergence herbicidal action against ECHCG; conditions: dosage 320 g/ha
Summary of the method: as §2

[7] = tested on: Amaranthus retroflexus (AMARE); experiment: Post-emergence herbicidal action against AMARE
Summary of the method: as §1

[8] = tested on: Echinochloa crus-galli (ECHCG); experiment: Post-emergence herbicidal action against ECHCG
Summary of the method: as §1

Lolium rigidum (LOLRI) [9] = experiment: Pre-emergence herbicidal action against LOLRI
Summary of the method: as §2

Viola tricolor (VIOTR) [10] = experiment: Post-emergence herbicidal action against VIOTR
Summary of the method: as §1

Avena fatua (AVEFA) [11] = experiment: Post-emergence herbicidal action against AVEFA; conditions: visual rating about 3 weeks after treatment
Summary of the method: as §1

Setaria viridis (SETVI) [12] = experiment: Post-emergence herbicidal action against SETVI
Summary of the method: as §1

Oryza sativa (ORYSA) = conditions: crop plant compatibility
Summary of the method: (§3)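 Effects were read visually as % versus untreated controls (0% = no effect, 100% = death) about 3 weeks post-treatment. Application was a post-emergence spray at the one-leaf stage of WP/EC formulations with 0.5% additive at 600 l/ha. Different dosages are denoted a, b and c.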

Avena fatua (AVEFA) [13] = experiment: Pre-emergence herbicidal action against AVEFA; conditions: visual scoring after about 3 weeks vs untreated controls
Summary of the method: as §2

[14] = tested on: Alopecurus myosuroides (ALOMY); experiment: Post-emergence herbicidal action against ALOMY; conditions: visual rating about 3 weeks after treatment vs untreated controls (100% = plants have died, 0% = like control plants)
Summary of the method: as §1

[15] = tested on: Verconica persica (VERPE); experiment: Post-emergence herbicidal action against VERPE
Summary of the method: as §1

[16] = tested on: Verconica persica (VERPE); experiment: Pre-emergence herbicidal action against VERPE
Summary of the method: as §2

Viola tricolor (VIOTR) [17] = experiment: Pre-emergence herbicidal action against VIOTR
Summary of the method: as §2

[18] = tested on: Pharbitis purpurea (PHBPU); experiment: Pre-emergence herbicidal action against PHBPU; conditions: dosage 320 g/ha
Summary of the method: as §2

[19] = tested on: Polygonum convolvulus (POLCO); experiment: Pre-emergence herbicidal action against POLCO
Summary of the method: as §2

[20] = tested on: Polygonum convolvulus (POLCO); experiment: Post-emergence herbicidal action against POLCO; conditions: dosage 320 g/ha
Summary of the method: as §1

[21] = tested on: Abutilon theophrasti (ABUTH); experiment: Post-emergence herbicidal action against ABUTH; conditions: 320 g/ha, visual rating about 3 weeks after treatment vs untreated controls (100% = plants have died, 0% = like control plants)
Summary of the method: as §1

Zea mays (ZEAMX) = tested on: Zea mays (ZEAMX)
Summary of the method: as §3

[22] = tested on: Matricaria inodora (MATIN); experiment: Pre-emergence herbicidal action against MATIN; conditions: dosage 320 g/ha
Summary of the method: as §2

Setaria viridis (SETVI) [23] = experiment: Pre-emergence herbicidal action against SETVI; conditions: dosage 320 g/ha
Summary of the method: as §2

[24] = 80 g/ha, visual rating about 3 weeks after treatment vs untreated controls (100% = plants have died, 0% = like control plants)
[25] = 320 g/ha, visual rating about 3 weeks after treatment
[26] = 80 g/ha, effect in comparison to untreated controls

Row | SMILES | Post-emergence action against PHBPU in % ([1]; dosage 80 g/ha) | Post-emergence action against PHBPU in % ([1]; dosage 320 g/ha) | Pre-emergence action against ABUTH [2] | Pre-emergence action against AMARE in % ([3]; 80 g/ha) | Pre-emergence action against AMARE in % ([3]; 320 g/ha) | Pre-emergence action against ALOMY ([4]; 320 g/ha) | Post-emergence action against LOLRI in % (Lolium rigidum (LOLRI) [5]; dosage 80 g/ha) | Post-emergence action against LOLRI in % (Lolium rigidum (LOLRI) [5]; dosage 320 g/ha) | Pre-emergence action against ECHCG in % [6] | Pre-emergence action against LOLRI in % (Lolium rigidum (LOLRI) [9]; dosage 80 g/ha) | Pre-emergence action against LOLRI in % (Lolium rigidum (LOLRI) [9]; dosage 320 g/ha) | Post-emergence action against AVEFA in % (Avena fatua (AVEFA) [11]; 80 g/ha) | Pre-emergence action against AVEFA in % (Avena fatua (AVEFA) [13]; 80 g/ha) | Pre-emergence action against AVEFA in % (Avena fatua (AVEFA) [13]; 320 g/ha) | Post-emergence action against ALOMY in % ([14]; 80 g/ha) | Pre-emergence action against VERPE in % ([16]; dosage 320 g/ha) | Pre-emergence action against VIOTR in % (Viola tricolor (VIOTR) [17]; 320 g/ha, Viola tricolor) | Pre-emergence action against VIOTR in % (Viola tricolor (VIOTR) [17]; dosage 80 g/ha) | Pre-emergence action against PHBPU in % [18] | Pre-emergence action against POLCO in % ([19]; dosage 320 g/ha) | other results
1 | COC(=O)CCOC(=O)[C@@H](C)Oc1nn(-c2ccccn2)c(-c2ccc(F)nc2)c1Cl [Example I-340] | 90% | 90% | 80% | 90% | 100% | 100% | 90% | 90% | 100% | 100% | 100% | 90% | 80% | 90% | 90% | 100% | 100% | 100% | 80% | 90% | Post-emergence action against AMARE in % [7, 24]: 80%; Post-emergence action against AMARE in % [7, 25]: 90%; Post-emergence action against ECHCG in % ([8]; dosage 80 g/ha): 80%; Post-emergence action against ECHCG in % ([8]; dosage 320 g/ha): 90%; Post-emergence action against VIOTR in % (Viola tricolor (VIOTR) [10]; 80 g/ha): 90%; Post-emergence action against VIOTR in % (Viola tricolor (VIOTR) [10]; 320 g/ha): 90%; Post-emergence action against AVEFA in % (Avena fatua (AVEFA) [11]; 320 g/ha): 90%; Post-emergence action against SETVI in % (Setaria viridis (SETVI) [12]; dosage 80 g/ha): 80%; Post-emergence action against SETVI in % (Setaria viridis (SETVI) [12]; dosage 320 g/ha): 90%; Post-emergence action against ORYSA in % (Oryza sativa (ORYSA); [26]): 0%; Post-emergence action against ORYSA in % (Oryza sativa (ORYSA); 320 g/ha, effect in comparison to untreated controls): 0%; Post-emergence action against ALOMY in % ([14]; 320 g/ha): 100%; Post-emergence action against VERPE in % ([15]; 320 g/ha, VERPE): 90%; Post-emergence action against VERPE in % ([15]; dosage 80 g/ha): 80%; Pre-emergence action against POLCO in % ([19]; dosage 80 g/ha): 80%; Post-emergence action against POLCO in % [20]: 90%; Post-emergence action against ABUTH in % [21]: 80%
2 | C[C@@H](Oc1nn(-c2ncccc2F)c(-c2ccc(F)nc2)c1Br)C(=O)OCc1ccccn1 [Example I-52] |  |  | 80% | 80% | 100% | 100% | 80% |  | 100% | 90% | 100% | 90% | 90% | 100% | 90% | 100% | 100% | 100% | 90% | 90% | Pre-emergence action against ALOMY ([4]; 80 g/ha): 90%; Post-emergence action against SETVI in % (Setaria viridis (SETVI) [12]; dosage 80 g/ha): 80%; Post-emergence action against ORYSA in % (Oryza sativa (ORYSA); 20 g/ha, effect vs untreated controls): 0%; Post-emergence action against ORYSA in % (Oryza sativa (ORYSA); [26]): 10%; Post-emergence action against ZEAMX in % (crop plant compatibility) (Zea mays (ZEAMX); 20 g/ha, ZEAMX, effect in comparison to untreated controls): 0%; Post-emergence action against ZEAMX in % (Zea mays (ZEAMX); crop plant compatibility, 80 g/ha, effect vs untreated controls): 10%; Post-emergence action against VERPE in % ([15]; dosage 80 g/ha): 90%; Pre-emergence action against VERPE in % ([16]; dosage 80 g/ha): 80%; Pre-emergence action against MATIN in % [22]: 90%; Pre-emergence action against SETVI in % (Setaria viridis (SETVI) [23]): 100%
3 | C[C@@H](Oc1nn(-c2ccccn2)c(-c2cncnc2)c1Cl)C(=O)O [Example I-20] | 90% | 90% | 90% | 100% | 100% | 100% | 90% | 90% | 100% | 100% | 100% | 90% | 90% | 100% | 100% | 100% | 100% | 100% | 90% | 100% | Pre-emergence action against ALOMY ([4]; 80 g/ha): 90%; Post-emergence action against AMARE in % [7, 24]: 90%; Post-emergence action against AMARE in % [7, 25]: 90%; Post-emergence action against ECHCG in % ([8]; dosage 320 g/ha): 80%; Post-emergence action against VIOTR in % (Viola tricolor (VIOTR) [10]; 80 g/ha): 90%; Post-emergence action against VIOTR in % (Viola tricolor (VIOTR) [10]; 320 g/ha): 90%; Post-emergence action against AVEFA in % (Avena fatua (AVEFA) [11]; 320 g/ha): 90%; Post-emergence action against SETVI in % (Setaria viridis (SETVI) [12]; dosage 320 g/ha): 90%; Post-emergence action against ALOMY in % ([14]; 320 g/ha): 100%; Post-emergence action against VERPE in % ([15]; 320 g/ha, VERPE): 80%; Pre-emergence action against MATIN in % [22]: 100%; Pre-emergence action against SETVI in % (Setaria viridis (SETVI) [23]): 100%; Pre-emergence action against POLCO in % ([19]; dosage 80 g/ha): 90%; Post-emergence action against POLCO in % [20]: 80%
